Source: US7153685B2 (The Board of Trustees of the University of Illinois, priority 2002, dated 2006)

Experiments:
[1] = tested on: ER3M-VP16 fusion proteins (N-79, N-129, C-79, C-129); experiment: ATL8/PAL-LUC transactivation with CMV-driven ER3M-VP16 fusion proteins in HepG2 cells; format: cell-based, human; conditions: 10 nM ICI 182,780, no OHT
Excerpt: These fragments were digested with KpnI and BamHI and then purified from agarose gels. […] To create C-129, this ER fragment was digested with XbaI and KpnI and then cloned together with the DNA fragment containing 129 amino acids of VP16 into 5.9 kb vector generated by digestion of CMV-hER with XbaI and BamHI. The same strategy was adopted to create C-79 using the DNA fragment containing 79 amino acids of VP16. Therefore, the expression of these chimeras is driven by the same CMV promoter as that of ER-3M. […] The amplified PCR product was digested with NcoI and NotI. […] This fragment and the NcoI/NotI PCR fragment were then inserted together into the 4.3 kb vector, pGL3-ATL8/PAL-LUC, which was created by digesting ATL8/PAL-LUC completely with NcoI and partially with XbaI so that the luciferase gene was replaced by N-79.

wild type hERα = biological target: T1, wild type hERα (Homo sapiens, UniProt P03372, G400V); experiment: Ligand-dependent luciferase reporter transactivation in transfected HepG2 cells; conditions: for MOX-dependent increase in luciferase activity: ATL2/cERE-LUC, 10 nM MOX
T1 sequence (P03372 1-595 G400V): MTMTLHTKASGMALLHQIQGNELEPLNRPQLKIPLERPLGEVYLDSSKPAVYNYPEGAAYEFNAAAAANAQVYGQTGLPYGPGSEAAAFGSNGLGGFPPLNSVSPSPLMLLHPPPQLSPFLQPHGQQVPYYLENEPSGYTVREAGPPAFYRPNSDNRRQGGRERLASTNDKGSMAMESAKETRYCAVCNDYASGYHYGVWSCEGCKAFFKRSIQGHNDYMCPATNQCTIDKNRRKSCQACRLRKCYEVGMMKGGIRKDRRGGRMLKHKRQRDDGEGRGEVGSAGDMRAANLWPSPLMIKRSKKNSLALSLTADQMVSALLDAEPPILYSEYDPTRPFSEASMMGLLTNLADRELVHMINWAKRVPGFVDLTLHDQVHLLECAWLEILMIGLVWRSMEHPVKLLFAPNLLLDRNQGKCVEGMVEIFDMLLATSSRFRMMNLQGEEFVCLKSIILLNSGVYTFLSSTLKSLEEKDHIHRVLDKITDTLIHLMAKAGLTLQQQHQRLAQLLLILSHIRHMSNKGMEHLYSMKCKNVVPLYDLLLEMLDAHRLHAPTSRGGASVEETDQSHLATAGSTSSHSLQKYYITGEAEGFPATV
Protocol: HepG2 human hepatoma cells were maintained in a humidified 5% CO2 incubator at 37° C. in Dulbecco's Modified Eagle's Medium (DMEM; Sigma; St. Louis, Mo.) supplemented with 10 % charcoal-dextran-stripped fetal bovine serum (CD-FBS; Atlanta Biologicals, Inc; Atlanta, Ga.), 50,000 U/l of penicillin, and 50 mg/liter streptomycin (Life Technologies, Inc.). MCF-7 cells were routinely maintained in DMEM/Nutrient Mixture F-12 (DMEM/F12) supplemented with 10% heat-inactived FBS, 50,000 U/l of penicillin, and 50 mg/l streptomycin. CHO-S cells were maintained in DMEM/F12 supplemented with 10% heat-inactivated FBS (CD-FBS when ERs were being expressed) or 10% CD-new born calf serum (CD-NBCS, when reporter activity by different ligands were measured), 29.2 mg/l L-glutamine (Sigma), and 50,000 U/l of penicillin and 50 mg/l streptomycin.
Transient transfections in HepG2 cells was accomplished using calcium phosphate co-precipitation (Ausubel et al., 1987). Briefly, cells were plated in 12-well microplates at a density of 1×10^5 cells/well. The next day, the medium was replaced, and 2–6 hours later, precipitated calcium phosphate:DNA co-crystals were added. After 12–16 hours, the cells were shocked for 3 minutes with 20% glycerol in Tris-buffered saline, pH 7.4. Fresh medium and (if any) hormones were added. For MCF-7 and 231 cells, transient transfection was carried out using the Tfx™-20 reagent (Promega; Madison, Wis.) according to the manufacturer's direction with minor changes. Briefly, 1×10^5 cells were plated in each well of 12-well microplates one day before transfection. A 1:3 ratio of DNA to lipid was used. The DMEM/F12 medium without serum was used as carrier for the DNA-lipid mixture. After 1 hour incubation with the DNA-lipid-DMEM/F12 at 37° C., the cells were transferred to fresh DMEM/F12 supplemented with 10% CD-FBS, 50,000 U/I of penicillin, 50 mg/l streptomycin and hormones. Transfection on CHO—S cells was described as above for the preparation of ERs extraction except the medium contained 10% CD-NBCS. The cells subjected to either transfection method were harvested 48 hours post-transfection. Reporter assays were performed by lysing the cells in situ with 250 μl of passive lysis buffer (Promega). Activity was determined using the dual luciferase assay protocol according to the manufacturer's directions (Promega) on a Monolight 2010 luminometer (Analytical Luminescence, San Diego, Calif.)
Transient transfections of HepG2 cells were carried out and luciferase activity determined.

cERE probe = experiment: EMSA (gel mobility shift), ER binding to cERE probe; conditions: CHO-S extracts
Protocol: (§1) CHO—S cells (Life-Technologies; Grand Island, N.Y.) were transfected using Lipofectamine 2000 (Life-Technologies). Transfection was performed according to the manufacturer's instructions, except cells were grown in 6-well plates coated with 1 ml of 0.1 mg/mL polylysine for 24 hours at 37° C. prior to transfection. One μg of CMV-hERα and 3 μg of pTZ18U carrier DNA were used for each well; DNA:Lipofectamine 2000 was 1:3. 17β-estradiol was added to a final concentration of 10 nM 1 hour before harvest. Whole cell extracts were prepared as described (Zhang et al., 1996) with a modified extraction buffer (50 m-M Tris-HCl, pH 7.5, 1.5 mM EDTA, 10 mM Na2MoO4, 0.5 M NaCl, 10% glycerol, 0.5 mM β-mercaptoethanol, 50 μg/ml leupeptin, 1 μg/ml pepstatin and 5 μg/ml aprotinin).
(§2) Gel mobility shift assays were performed essentially as described [Zhang, 1999 #38]. Each 20 μl reaction contained 50 mM KCl, 15 mM Tris-HCl (pH 7.9), 4 mM dithiothreitol, 0.2 mM EDTA, 3 μg of poly(dIdC) and 10% glycerol; bovine serum albumin (BSA) was added to each sample for a total of 10 μg of protein. Free probe and protein-DNA complexes were quantitated using a phosphor imager and ImageQuant 5.0 (Molecular Dynamics, Inc., Sunnyvale, Calif.). The sequence of one DNA strand of each of the three probes (SEQ ID NOS:61–63) used for the gel mobility shift assays are presented in Table 31. The ERE or PAL sequences are underlined.
To compare binding of wild type hERα and the ER mutants to the EREs, protein titrations were performed. Increasing amounts of extracts containing equivalent levels of wild-type ER or ER mutants were incubated with the cERE. The ER:ERE complexes were then analyzed by EMSA. […] The mutants required 1.5–2.4-fold more extract to bind 50% of the cERE probe than wild-type ER. […] Even at the highest level of extract (8 μg), wild-type ER shifted only ˜15% of the pS2 probe.
FIG. 1 (Legend) A. Panel (i), Western blots of normalized whole cell extracts of wild type hERα and mutants from transfected CHO-S cells. Lane 1–13: mutants 4, 2, 57.1, 50.1, 15.3, wild type ER, 7.2, 6.2, 4.3, 3.1, 2.1, wild type, and 3M, respectively. Panel (ii), The three ERE sequences used in these studies. The nucleotides that differ from those in the consensus ERE (cERE) are underlined. Nucleotides in lower case lettering are less well conserved or not conserved in EREs. […] The data were calculated by PhosphorImager analysis. (B) The labeled cERE probe was incubated with 0.5, 1.0, 2.0 and 4.0 μg of whole cell extracts of wild type hERα, or extracts containing the mutant ERs normalized to contain the same amount of ER as the wild-type ER extract at each point. (C) Gel shift assays using the labeled pS2 ERE probes and increasing amounts (1.0, 2.0, 4.0 and 8.0 μg) of the whole cell extracts containing wild-type ER and each of the ER mutants. (D) Gel shift assays using the labeled pS2 palindrome ERE probe. The ER extract contained 2.0, 4.0 and 8.0 μg of whole cell extract (panel (i)), and 15 μg (panel (ii)). Lanes 1–7 (panel (ii)) represent wild type hERα, and mutants 3M, 3.1, 4.3, 6.2, 2 and 4, respectively. D (iii) contains a graph of the percentage of the labeled pS2 PAL probe shifted calculated by PhosphorImager analysis of the data in D(i) and D(ii).

[2] = tested on: ATL2/pS2 ERE-LUC reporter in HepG2 cells; experiment: MOX-dependent transactivation by wild-type and mutant ERs, transient transfection, luciferase reporter; format: cell-based, human; conditions: 10 nM MOX
[3] = tested on: putative ERE in the Bcl2 gene; experiment: EMSA, ER binding to putative ERE in the Bcl2 gene; conditions: summary statement
Protocol: as §2
It therefore seemed possible that binding of wild-type ER to the pS2 ERE is based on strong binding of one monomer of the ER dimer to the cERE half site (aGGTCA; SEQ ID NO: 65) and weak non-specific interaction of the other ER monomer with the sequence at the other half site. To test this possibility, binding of wild-type and the ER mutants to a putative ERE in the Bcl2 gene was examined. Like pS2, Bcl2 contains a cERE half site, but also contains a second, different half site that deviates from the consensus sequence by one nucleotide.

pS2 PAL probe = experiment: EMSA (gel mobility shift), ER binding to pS2 PAL probe
Protocol: as §1
(§3) Gel mobility shift assays were performed essentially as described [Zhang, 1999 #38]. […] Free probe and protein-DNA complexes were quantitated using a phosphor imager and ImageQuant 5.0 (Molecular Dynamics, Inc., Sunnyvale, Calif.). […]
(§4) FIG. 1 (Legend) A. Panel (i), Western blots of normalized whole cell extracts of wild type hERα and mutants from transfected CHO-S cells. […] The data were calculated by PhosphorImager analysis. […] D (iii) contains a graph of the percentage of the labeled pS2 PAL probe shifted calculated by PhosphorImager analysis of the data in D(i) and D(ii).

[4] = tested on: ATL2/PAL-LUC reporter in HepG2 cells; experiment: MOX-dependent transactivation by wild-type and mutant ERs, transient transfection, luciferase reporter; format: cell-based, human; conditions: 10 nM MOX
pS2 ERE probe = experiment: EMSA (gel mobility shift), ER binding to pS2 ERE probe
Protocol: as §1, with “Whole cell extracts were prepared as described (Zhang et al., 1996) with a modified extraction buffer (50 m-M Tris-HCl, pH 7.5, 1.5 mM EDTA, 10 mM Na2MoO4, 0.5 M NaCl, 10% glycerol, 0.5 mM β-mercaptoethanol, 50 μg/ml leupeptin, 1 μg/ml pepstatin and 5 μg/ml aprotinin).” left out
as §3
To compare binding of wild type hERα and the ER mutants to the EREs, protein titrations were performed. […] The ER:ERE complexes were then analyzed by EMSA. […]
as §4

| binding to cERE and pS2 ERE DNA probes (cERE probe) | Molecule | activation of transcription from native pS2 ERE compared with wild-type ER [2] | other results |
| --- | --- | --- | --- |
| little or no binding | ER2.1: ERα DNA binding domain mutant, SEQ ID NO:16 (WSCKAFFKRSIAGGNDY; Mutant DBD of ER) |  |  |
| little or no binding | ER7.2: ERα DNA binding domain mutant, SEQ ID NO:18 (EGCKAFFKRSIQRHPRY; Mutant DBD of ER) |  |  |
| little or no binding | ER15.3: ERα DNA binding domain mutant, SEQ ID NO:20 (ESCKAFFKRSIGGHNYY; Mutant DBD of ER) |  |  |
| little or no binding | ER50.1: ERα DNA binding domain mutant, SEQ ID NO:22 (WSCKGFFKRSKQGHNDY; Mutant DBD of ER) |  |  |
| little or no binding | ER57.1: ERα DNA binding domain mutant, SEQ ID NO:24 (WSCKGFFKRSIKGVPTY; Mutant DBD of ER) |  |  |

The next lines start with the molecule.

| Molecule | binding to cERE and pS2 ERE DNA probes (cERE probe) | activation of transcription from native pS2 ERE compared with wild-type ER [2] | other results |
| --- | --- | --- | --- |
| C[C@]12CC[C@@H]3c4ccc(O)cc4C[C@@H](CCCCCCCCC[S+]([O-])CCCC(F)(F)C(F)(F)F)[C@H]3[C@@H]1CC[C@@H]2O (some centres unmarked) [ICI 182,780] |  |  | effect on basal transactivation by the fusion proteins [1]: decreased |
| C#C[C@]1(O)CC[C@H]2[C@@H]3CCc4cc(O)ccc4[C@H]3[C@@H](OC)C[C@@]21C [MOX, moxestrol] |  |  | transactivation level on two copies of pS2 PAL (wild type hERα; ATL2/PAL-LUC, 10 nM ligand): undetectable; MOX-dependent increase in luciferase activity (wild type hERα; 0.75 ng expression plasmid): 32 fold; MOX-dependent increase in luciferase activity (wild type hERα; 2.5 ng expression plasmid): 41 fold |
| ER2: ERα DNA binding domain mutant, SEQ ID NO:12 (WGCKAFFKRSIARHNDY; Mutant DBD of ER) |  | less effective |  |
| ER3.1: ERα DNA binding domain mutant, SEQ ID NO:6 (WGCKAFFKRSINRHNSY; Mutant DBD of ER) |  | less effective |  |
| ER3M: ERα DNA binding domain mutant, residues 203–219 as SEQ ID NO:4 (WGCKAFFKRSIAGGNDY; Mutant DBD of ER) |  | more effectively than wild-type ER | binding to, or transcription from, the Bcl2 and TGF α1 EREs [3]: no detectable binding to, or transcription from |
| ER4.3: ERα DNA binding domain mutant, SEQ ID NO:8 (WGCKAFFKRSIVRPTDY; Mutant DBD of ER) |  | more effectively than wild-type ER | binding to, or transcription from, the Bcl2 and TGF α1 EREs [3]: no detectable binding to, or transcription from |
| ER4: ERα DNA binding domain mutant, SEQ ID NO:14 (WGCKAFFKRSIARGNDY; Mutant DBD of ER) |  | more effectively than wild-type ER |  |
| ER6.2: ERα DNA binding domain mutant, SEQ ID NO:10 (EGCKAFFKRSIARRLDY; Mutant DBD of ER) |  | less effective | binding to pS2 PAL (pS2 PAL probe): negligible binding; ability to activate transcription of the pS2 PAL reporter [4]: little or no ability to activate transcription; change in binding to pS2 ERE probe compared with cERE (pS2 ERE probe): dramatic decrease in binding |
